Laboratory results: ChEMBL document CHEMBL2040712, “Design and synthesis of a second series of triazole-based compounds as potent dual mPGES-1 and 5-lipoxygenase inhibitors” (Eur J Med Chem, 2012)

Assays:
[1] = biological target: T1, Polyunsaturated fatty acid 5-lipoxygenase (Homo sapiens, UniProt P09917); test: Inhibition of 5-lipoxygenase in human neutrophil preincubated for 15 mins before substrate arachidonic acid addition measured after 10 mins by HPLC method
T1 sequence (P09917 whole entry): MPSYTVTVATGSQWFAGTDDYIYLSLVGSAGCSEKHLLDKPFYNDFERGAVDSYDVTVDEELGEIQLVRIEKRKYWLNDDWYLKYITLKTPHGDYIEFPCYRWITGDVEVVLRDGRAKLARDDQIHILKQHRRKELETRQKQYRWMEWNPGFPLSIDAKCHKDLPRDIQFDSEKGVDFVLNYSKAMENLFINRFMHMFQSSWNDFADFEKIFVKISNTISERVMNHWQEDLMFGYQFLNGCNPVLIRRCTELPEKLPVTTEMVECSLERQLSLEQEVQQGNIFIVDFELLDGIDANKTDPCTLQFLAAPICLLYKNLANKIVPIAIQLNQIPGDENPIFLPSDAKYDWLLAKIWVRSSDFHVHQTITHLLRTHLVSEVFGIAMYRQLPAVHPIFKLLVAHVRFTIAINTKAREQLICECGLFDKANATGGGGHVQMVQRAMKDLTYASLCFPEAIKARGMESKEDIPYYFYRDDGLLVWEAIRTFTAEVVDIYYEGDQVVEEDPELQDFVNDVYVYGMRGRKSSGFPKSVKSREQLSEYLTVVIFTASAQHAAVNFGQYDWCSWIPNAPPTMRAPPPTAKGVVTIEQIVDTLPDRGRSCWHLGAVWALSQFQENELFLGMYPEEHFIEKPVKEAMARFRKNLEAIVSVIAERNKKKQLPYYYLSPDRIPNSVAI

[2] = biological target: T2, Polyunsaturated fatty acid 5-lipoxygenase (Homo sapiens) (UniProt P09917); test: Inhibition of 5-lipoxygenase in human neutrophil assessed as remaining activity at 10 uM preincubated for 15 mins before substrate arachidonic acid addition measured after 10 mins by HPLC method
T2 sequence (whole entry): T1 sequence (P09917 whole entry)

Prostaglandin E synthase = biological target: T3, Prostaglandin E synthase (Homo sapiens, UniProt O14684); test: Inhibition of mPGES1 in IL-1beta-stimulated human A549 cell assessed as inhibition of PGE2 production preincubated for 15 mins before substrate addition by RP-HPLC method
T3 sequence (O14684 whole entry): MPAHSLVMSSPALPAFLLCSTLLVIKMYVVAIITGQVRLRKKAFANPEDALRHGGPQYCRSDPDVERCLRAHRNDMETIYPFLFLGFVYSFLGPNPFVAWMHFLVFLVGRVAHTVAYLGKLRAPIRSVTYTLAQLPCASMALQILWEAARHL

[3] = biological target: T1, Polyunsaturated fatty acid 5-lipoxygenase; test: Inhibition of human recombinant 5-lipoxygenase in cell-free system preincubated for 10 mins before substrate arachidonic acid addition measured after 10 mins by RP-HPLC method
[4] = biological target: T4, Prostaglandin E synthase (Homo sapiens) (UniProt O14684); test: Inhibition of mPGES1 in IL-1beta-stimulated human A549 cell assessed as remaining activity measuring of PGE2 level at 10 uM preincubated for 15 mins before substrate addition by RP-HPLC method
T4 sequence (whole entry): T3 sequence (O14684 whole entry)

[5] = biological target: T2, Polyunsaturated fatty acid 5-lipoxygenase (Homo sapiens); test: Inhibition of human recombinant 5-lipoxygenase in cell-free system assessed as remaining activity at 10 uM preincubated for 10 mins before substrate arachidonic acid addition measured after 10 mins by RP-HPLC method
Rattus norvegicus = species on record: Rattus norvegicus; test: Inhibition of mPGES1 in rat microsomal membranes assessed as inhibition of PGE2 production at 10 uM after 40 seconds by enzyme immunoassay; format: microsomes; conditions: Microsome

inhibition (Rattus norvegicus) [%] | Structure (SMILES) | IC50 [1] [µM] | Activity [2] [%] | IC50 (Prostaglandin E synthase) [µM] | IC50 [3] [µM] | Activity [4] [%] | Activity [5] [%]
– | O=C(O)c1ccc(Cn2cc(-c3ccc(-c4ccc(O)cc4)cc3)nn2)c([N+](=O)[O-])c1 | > 10 | 108 | > 10 | 6.8 | 74.2 | –
– | Nc1ccc(-c2ccc(-c3cn(Cc4ccc(C(=O)O)cc4[N+](=O)[O-])nn3)cc2)cc1 | > 10 | 100 | > 10 | > 10 | 65.5 | 63.5
– | O=C(O)c1ccc(Cn2cc(-c3ccc(-c4cccc(C(=O)N5CCOCC5)c4)cc3)nn2)c([N+](=O)[O-])c1 | > 10 | 125 | > 10 | > 10 | 88.9 | 62.7
– | O=C(O)c1ccc(Cn2cc(-c3ccc(-c4cccs4)cc3)nn2)c([N+](=O)[O-])c1 | > 10 | 89.7 | 5.5 | > 10 | – | 52.2
– | Nc1cc(C(=O)O)ccc1Cn1cc(-c2ccc(-c3ccccc3COc3cc(C(F)(F)F)ccc3Cl)cc2)nn1 | 2.1 | – | 0.68 | 0.9 | – | –
– | O=C(O)c1cccc(-c2ccc(-c3cn(Cc4ccc(C(=O)O)cc4[N+](=O)[O-])nn3)cc2)c1 | > 10 | 124 | > 10 | > 10 | 82.1 | 74.7
– | COc1cc(-c2ccc(-c3cn(Cc4ccc(C(=O)O)cc4[N+](=O)[O-])nn3)cc2)cc(OC)c1OC | > 10 | 90.2 | > 10 | > 10 | 54.3 | 64.3
– | O=C(O)c1ccc(-c2ccc(-c3cn(Cc4ccc(C(=O)O)cc4[N+](=O)[O-])nn3)cc2)cc1 | > 5 | – | > 10 | > 5 | 93 | –
– | O=C(O)c1ccc(Cn2cc(-c3ccc(-c4ccccc4COc4cc(C(F)(F)F)ccc4Cl)cc3)nn2)c([N+](=O)[O-])c1 | 5.3 | – | 1.2 | 2 | – | –
– | O=C(O)c1ccc(S(=O)(=O)n2cc(-c3ccc(-c4ccccc4COc4cc(C(F)(F)F)ccc4Cl)cc3)nn2)cc1 | 1.2 | – | > 10 | 1.96 | 78.6 | –
82 | CC(C)c1ccc2c(c1)c(SC(C)(C)C)c(CC(C)(C)C(=O)O)n2Cc1ccc(Cl)cc1 | – | – | – | – | – | –
– | O=C(O)c1ccc(Cn2cc(-c3ccc(-c4ccccc4COc4cc(C(F)(F)F)ccc4Cl)cc3)nn2)cc1 | 2 | – | 1 | 1.47 | – | –
– | CN(C)c1ccc2cc(S(=O)(=O)Nc3ccc(-c4ccc(-c5cn(Cc6ccc(C(=O)O)cc6[N+](=O)[O-])nn5)cc4)cc3)ccc2c1 | > 10 | 96.5 | > 10 | 6.1 | 72.5 | –
– | O=C(O)c1ccc(Cn2cc(-c3ccc(-c4ccccc4)cc3)nn2)c([N+](=O)[O-])c1 | – | – | < 3.2 | – | – | –
– | O=C(O)c1ccc(Cn2cc(-c3ccc(-c4cccc(O)c4)cc3)nn2)c([N+](=O)[O-])c1 | > 10 | 114 | > 10 | > 10 | 55.6 | 80.2
– | O=C(O)c1ccc(Cn2cc(-c3ccc(-c4ccccc4C(=O)O)cc3)nn2)c([N+](=O)[O-])c1 | > 10 | 65.9 | > 10 | > 10 | 94.1 | 75.3
– | COc1ccc(-c2ccc(-c3cn(Cc4ccc(C(=O)O)cc4[N+](=O)[O-])nn3)cc2)cc1CN1CCOCC1 | > 10 | 111 | > 10 | > 10 | 87.4 | 84.9
